Test results reported in US9765105B2, “Macrolide compound” (Pulike Biological Engineering, Inc., priority 2013, dated 2017).

How the values were obtained:
Assay in all cases: in vitro susceptibility, MIC by mini broth dilution
Format in all cases: cell-based
[1] = system: Staphylococcus aureus CVCC26003; conditions: strain CVCC26003
Method in brief: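 MICs were determined by mini broth dilution under NCCLS standards in CAMHB, using revived S. aureus CVCC26003 subcultured 20 h at 35° C. Compounds were two-fold serially diluted in DMSO across 11 wells, with duplicate rows. Bacterial suspension was diluted 1:200 in medium before inoculation.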

[2] = system: Haemophilus parasuis
Method in brief: (§1)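 Following the NCCLS standard, each compound is serially halved in DMSO to give 11 concentrations, run in duplicate alongside a control well. Inocula come from colonies grown 20 h at 35° C and are diluted 1:200 into broth; MIC is taken by mini broth dilution.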

[3] = system: Streptococcus equines CVCC556; conditions: strain CVCC556
Method in brief: as §1

[4] = system: Actinobacillus pleuropneumoniae CVCC262; conditions: strain CVCC262
Method in brief: as §1

[5] = system: Pasteurella multocida CVCC399; conditions: strain CVCC399
Method in brief: as §1

SMILES | MIC values, Staphylococcus aureus CVCC26003 [1] [ug/mi] | MIC values, Haemophilus parasuis [2] | MIC values, Streptococcus equines CVCC556 [3] [ug/mi] | MIC values, Actinobacillus pleuropneumoniae CVCC262 [4] [ug/mi] | MIC values, Pasteurella multocida CVCC399 [5] [ug/mi]
CCC(NC[C@]1(O)[C@H](C)O[C@@H](O[C@H]2[C@H](C)[C@@H](O[C@@H]3O[C@H](C)C[C@H](N(C)C)[C@H]3O)[C@](C)(O)C[C@@H](C)NC[C@H](C)[C@@H](O)[C@](C)(O)[C@@H](CC)OC(=O)[C@@H]2C)C[C@@]1(C)OC)C(=O)O (stereo partly drawn) [syzx-41, (2R,3S,4R,5S,8R,10R,11R,12S,13S,14R)-13-[(2,6-dideoxy-3-C-methyl-3-O-methyl-4-C-[[butyrate-2-amino]-methyl]-α-L-ribopyranosyl)oxy]-2-ethyl-3,4,10-trihydroxy-3,5,8,10,12,14-hexamethyl-11-[[3,4,6-trideoxy-3-(dimethylamino)-β-D-xylo-hexopyranosy]oxy]-1-oxa-7-azacyclopentadecan-15-one] | 2 | 1 ug/mi | 0.5 | 1 | 4
CC[C@H]1OC(=O)[C@H](C)[C@@H](O[C@H]2C[C@@](C)(OC)[C@](O)(CNCCCC(=O)O)[C@H](C)O2)[C@H](C)[C@@H](O[C@@H]2O[C@H](C)C[C@H](N(C)C)[C@H]2O)[C@](C)(O)C[C@@H](C)NC[C@H](C)[C@@H](O)[C@]1(C)O [syzx-42, (2R,3S,4R,5S,8R,10R,11R,12S,13S,14R)-13-[(2,6-dideoxy-3-C-methyl-3-O-methyl-4-C-[[butyrate-4-amino]-methyl]-α-L-ribopyranosyl)oxy]-2-ethyl-3,4,10-trihydroxy-3,5,8,10,12,14-hexamethyl-11-[[3,4,6-trideoxy-3-(dimethylamino)-β-D-xylo-hexopyranosy]oxy]-1-oxa-7-azacyclopentadecan-15-one] | 2 | 1 ug/mi | 1 | 1 | 2
CC[C@H]1OC(=O)[C@H](C)[C@@H](O[C@H]2C[C@@](C)(OC)[C@](O)(CNCCCO)[C@H](C)O2)[C@H](C)[C@@H](O[C@@H]2O[C@H](C)C[C@H](N(C)C)[C@H]2O)[C@](C)(O)C[C@@H](C)NC[C@H](C)[C@@H](O)[C@]1(C)O [syzx-46, (2R,3S,4R,5S,8R,10R,11R,12S,13S,14R)-13-[(2,6-dideoxy-3-C-methyl-3-O-methyl-4-C-[(3-hydroxy-propylamino)-methyl]-α-L-ribopyranosyl)oxy]-2-ethyl-3,4,10-trihydroxy-3,5,8,10,12,14-hexamethyl-11-[[3,4,6-trideoxy-3-(dimethylamino)-β-D-xylo-hexopyranosy]oxy]-1-oxa-7-azacyclopentadecan-15-one] | 1 | ≦0.25 ug/mi | 2 | 32 | 4
CC[C@H]1OC(=O)[C@H](C)[C@@H](O[C@H]2C[C@@](C)(OC)[C@](O)(CNN3CCOCC3)[C@H](C)O2)[C@H](C)[C@@H](O[C@@H]2O[C@H](C)C[C@H](N(C)C)[C@H]2O)[C@](C)(O)C[C@@H](C)NC[C@H](C)[C@@H](O)[C@]1(C)O [syzx-48, (2R,3S,4R,5S,8R,10R,11R,12S,13S,14R)-13-[(2,6-dideoxy-3-C-methyl-3-O-methyl-4-C-[(morpholin-4-yl-amino)-methyl]-α-L-ribopyranosyl)oxy]-2-ethyl-3,4,10-trihydroxy-3,5,8,10,12,14-hexamethyl-11-[[3,4,6-trideoxy-3-(dimethylamino)-β-D-xylo-hexopyranosy]oxy]-1-oxa-7-azacyclopentadecan-15-one] | 0.5 | ≦0.25 ug/mi | 0.5 | 16 | 1
